In patent US8153592B2, “Modulating toll-like receptor activity” (Mayo Foundation for Medical Education and Research, priority 2005, dated 2012):

Legend:
[1] = biological target: T1, TLR4/MD2 complex (Mus musculus, UniProt Q9JHF9+Q9QUK6); assay: Cell surface expression of TLR4/MD2 on HEK/TLR4(+) cells (flow cytometry); format: cell-based, murine; conditions: HEK/TLR4 cells treated with SDF-1
T1 construct: expressed in transfected cells; host or cells: HEK 293 (HEK/TLR4(+))
T1 sequence (Q9QUK6 26-835): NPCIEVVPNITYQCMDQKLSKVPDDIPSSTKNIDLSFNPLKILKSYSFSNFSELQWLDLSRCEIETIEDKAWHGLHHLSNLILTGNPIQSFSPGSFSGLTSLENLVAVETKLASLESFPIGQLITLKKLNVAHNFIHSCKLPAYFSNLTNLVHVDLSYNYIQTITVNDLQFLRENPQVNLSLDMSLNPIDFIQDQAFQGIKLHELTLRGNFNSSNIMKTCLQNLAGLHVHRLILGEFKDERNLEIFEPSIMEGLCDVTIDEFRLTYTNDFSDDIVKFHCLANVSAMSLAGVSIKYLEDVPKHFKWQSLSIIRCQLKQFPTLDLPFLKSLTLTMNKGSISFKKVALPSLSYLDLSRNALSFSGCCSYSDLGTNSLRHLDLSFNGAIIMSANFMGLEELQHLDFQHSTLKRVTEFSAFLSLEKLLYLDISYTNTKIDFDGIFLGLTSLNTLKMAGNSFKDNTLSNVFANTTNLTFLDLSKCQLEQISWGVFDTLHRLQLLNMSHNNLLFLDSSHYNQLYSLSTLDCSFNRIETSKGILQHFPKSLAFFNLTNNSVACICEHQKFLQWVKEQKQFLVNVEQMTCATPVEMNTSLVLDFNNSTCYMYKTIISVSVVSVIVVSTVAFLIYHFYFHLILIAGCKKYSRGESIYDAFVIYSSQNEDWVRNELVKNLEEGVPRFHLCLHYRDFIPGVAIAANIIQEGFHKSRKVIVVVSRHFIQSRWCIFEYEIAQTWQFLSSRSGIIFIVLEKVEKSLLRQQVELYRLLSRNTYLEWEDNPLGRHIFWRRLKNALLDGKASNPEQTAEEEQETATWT
T1 sequence (Q9JHF9 19-160): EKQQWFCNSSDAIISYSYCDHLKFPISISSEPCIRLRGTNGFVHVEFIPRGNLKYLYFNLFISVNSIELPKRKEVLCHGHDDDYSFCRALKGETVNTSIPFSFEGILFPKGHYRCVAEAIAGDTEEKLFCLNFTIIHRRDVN
Method: FIG. 2. TLR4 signaling is conditioned by extracellular matrix. The impact of extracellular matrix on TLR4 activation was tested in cells cultured in wells coated with extracellular matrix. (A) and (B) Inhibition of NFκB activation by extracellular matrix in HEK/TLR4(+) cells. HEK/TLR4(+) cells were cultured in wells coated with extracellular matrix (ECM) or fibronectin (FN) and transfected with NFκB- and control-luciferase reporter genes. TLR4 signaling in response to increasing amounts of heparan sulfate (A) or LPS (B) was measured six hours after stimulation. […] The cells were tested for cell surface expression of the TLR4/MD2 complex by flow cytometry using monoclonal antibodies specific for that complex. […] (D) and (E) Inhibition of p38 MAP Kinase activation by extracellular matrix in RAW 264 cells. (D) RAW 264.7 murine macrophages were cultured in wells coated with extracellular matrix (ECM) or fibronectin (FN). The cells were stimulated with heparan sulfate (left panel) or LPS (right panel) for the indicated time (minutes), after which the cells were lysed and activated p38 MAPK (phospho p38) was measured by immunoblotting. […] Similar results were obtained for cells stimulated with LPS. The data shown are representative of 3 separate experiments and indicate that activation of TLR4 signaling is inhibited by extracellular matrix.

[2] = biological target: T2, TLR4 (Mus musculus, UniProt Q9JHF9+Q9QUK6); assay: NFκB-luciferase reporter assay in HEK/TLR4(+) cells with perturbed CXCR4 (Examples 2 and 3); format: cell-based, murine
T2 construct: expressed in transfected cells
T2 sequence (Q9QUK6 26-835): T1 sequence (Q9QUK6 26-835)
T2 sequence (Q9JHF9 19-160): T1 sequence (Q9JHF9 19-160)
Method: HEK 293 cells (human embryonic kidney cells) from American Type Culture Collection (ATCC) were cultured in DMEM containing 10% fetal bovine serum, penicillin, and streptomycin. […] TLR4/MD2/CD14 expressing HEK 293 cells were selected using appropriate antibiotic selection medium and were then cloned by limiting dilution in the same medium. Control cells were prepared using empty expression vectors and identical transfection and selection procedures.
HEK 293 cell lines stably expressing TLR4/MD2/CD14 were seeded into 24-well tissue culture plates (2×10^5 cells/well) and allowed to adhere at 37° C. overnight. The adherent cells were transfected with 0.1 μg pTK Renilla-luciferase and 0.1 μg NFκB-firefly-luciferase using Superfect Transfection Reagent (Qiagen) and then cultured for 24 hours at 37° C. in 1 mL DMEM containing 0.5% fetal bovine serum. The cells were stimulated as indicated, washed with phosphate buffered saline, and lysed with 150 μL Passive Lysis Buffer (Promega). The amount of Renilla- and Firefly-luciferase in the cell lysates was assayed simultaneously using Dual-Luciferase Reporter Assay System (Promega) and a TD-20/20 lumenometer (Turner Designs, Sunnyvale, Calif.). Activation of NFκB-firefly luciferase reporter activity is given as the ratio of firefly luciferase to the internal control Renilla luciferase activity, determined and expressed as the mean of triplicate wells.

[3] = test system: TLR4; assay: CD86 expression in mouse spleen after intrasplenic injection (immunopathology); format: in vivo, mice; conditions: mice which lack TLR4 function (ScN), injected into spleen
Method: (§1) TLR4-deficient C57BL/10ScN mice, which have a deletion in chromosome 4 that encompasses the TLR4 gene, were obtained from The National Cancer Institute (Bethesda, Md.). C57BL/10SnJ mice, which have wild type TLR4 and are congenic with C57BL/10ScN were obtained from the Jackson Laboratory (Bar Harbor, Me.).
(§2) Mice were anesthetized, and the spleen was directly visualized through an incision in the lateral abdominal wall. TLR4 activators dissolved in 50 μL of PBS were injected into the spleen as follows. The solutions were injected as a 27 gauge needle was withdrawn along the long axis of the organ. Twelve hours after injection, the spleens were harvested and frozen in liquid nitrogen for analysis of CD86 expression. Studies were performed at twelve hours because preliminary experiments indicated CD86 expression became clearly detectable at this time. Longitudinal tissue sections were prepared from the center of the spleen and stained as described elsewhere (Dempsey et al., Glycobiology, 10:467-475 (2000)) with the following modifications. Secondary detection antibodies were diluted in M.O.M. diluent (Vector Laboratories, Burlingame, Calif.) and preabsorbed with mouse serum (Jackson ImmunoResearch Laboratories, West Grove, Pa.). Fluorescent images were converted to grayscale using SPOT software (Diagnostic Instruments, Sterling Heights, Mich.).

[4] = biological target: T3, TLR4 (Mus musculus, UniProt Q9QUK6); assay: as above; format: in vivo, mice; conditions: wild-type TLR4 mice, 12 hours
T3 construct: Spleens of C57BL/10SnJ mice with wild-type TLR4 (SnJ) were injected with 10 ng LPS; from tissue; host or cells: mouse spleen in vivo (C57BL/10SnJ; control C57BL/10ScN lacks the TLR4 gene)
T3 sequence (Q9QUK6 26-835): T1 sequence (Q9QUK6 26-835)
T3 sequence (Q9JHF9 19-160 partner): T1 sequence (Q9JHF9 19-160)
Method: as §1, §2

[5] = biological target: T2, TLR4; assay: NFκB-luciferase reporter assay in HEK/TLR4(+) cells (Example 1: TLR4 activators, extracellular matrix, elastase); format: cell-based, murine
Text: HEK 293 cells were stabily transfected with the TLR4 and MD2 or CD14 expression plasmids, each of which encode a component of a complete, functional TLR4 receptor complex (Akira and Takeda, Nat. Rev. Immunol., 4:499-511 (2004)) using Superfect (Qiagen, Valencia, Calif.) following the manufacturer's instructions. TLR4- and MD2- or CD14-expressing HEK 293 cells were obtained by culturing the transfected cells with appropriate antibiotic selection medium and cloning by limiting dilution in the selection medium. HEK 293 cells expressing TLR4, MD2, and CD14 were generated by transfecting HEK 293 cells expressing TLR4 and MD2 with the CD14 expression plasmid and selecting clones using appropriate antibiotic containing medium. Cell lines expressing TLR4 and MD2 and/or CD14 were then maintained in DMEM supplemented with 10% fetal bovine serum and the appropriate selection antibiotics. Control cell lines were transfected with empty expression vectors and incubated in selection conditions as described above.
Activation of NFκB was measured using a NFκB-luciferase reporter assay. HEK 293 cell lines stabily expressing TLR4, MD2, and/or CD14, or control cells were seeded into 24 well tissue culture plates (2×10^5 cells/well) in 1.0 mL DMEM containing 10% fetal bovine serum and penicillin and streptomycin. The cells were allowed to adhere to the culture wells at 37° C. overnight and were then transfected with 0.1 μg pTK Renilla-luciferase and 0.1 μg NFκB-firefly-luciferase using Superfect Transfection Reagent (Qiagen). Following transfection, the cells were washed once with phosphate buffered saline and cultured for 24 hours at 37° C. in 1.0 mL DMEM containing 0.5% fetal bovine serum. After various treatments, the culture medium was aspirated, and the cells were washed once with PBS. The cells were then lysed in 150 μL Passive Lysis Buffer (Promega) with rocking at room temperature for 15 minutes. Renilla- and Firefly-luciferase were assayed simultaneously using Dual-Luciferase Reporter Assay System (Promega) and a TD-20/20 luminometer (Turner Designs, Sunnyvale, Calif.). Activation of NFκB was reported as a ratio of the firefly luciferase activity to the constitutively expressed Renilla luciferase internal control, and as the mean of triplicate wells.

[6] = biological target: T4, CXCR4 (Homo sapiens, UniProt P61073); assay: CXCR4 cell surface level on Jurkat T cells (FACS, internalization of CXCR4); format: cell-based; conditions: 37° C. for 30 minutes
T4 construct: endogenous in cells; host or cells: Jurkat T cells
T4 sequence (P61073 whole entry): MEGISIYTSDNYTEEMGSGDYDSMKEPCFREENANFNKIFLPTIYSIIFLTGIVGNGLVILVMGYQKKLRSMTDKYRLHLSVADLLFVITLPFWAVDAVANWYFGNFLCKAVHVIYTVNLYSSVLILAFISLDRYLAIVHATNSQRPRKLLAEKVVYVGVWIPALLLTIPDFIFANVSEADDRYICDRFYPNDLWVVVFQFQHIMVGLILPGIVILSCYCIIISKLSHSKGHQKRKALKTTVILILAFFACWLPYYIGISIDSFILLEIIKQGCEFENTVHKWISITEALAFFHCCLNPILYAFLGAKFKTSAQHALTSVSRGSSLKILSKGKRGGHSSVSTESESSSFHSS
Method: To determine if the purified, recombinant [Hisx6]SDF-1 polypeptide activates CXCR4, Jurkat T cells were stimulated (37° C. for 30 minutes) with buffer alone or with buffer containing a synthetic SDF-1 polypeptide or the purified recombinant [Hisx6]SDF-1 polypeptide. Control cells were stimulated with bovine albumin. The treated cells were stained with fluorochrome-labeled anti-CXCR4 antibodies, and the amount of CXCR4 on the cell surface was measured by the intensity of CXCR4 antibody staining using FACS.

## SDF-1: the agonist for CXCR4; natural ligand polypeptide
[1]
  Expression of TLR4: did not alter expression of TLR4
[2]; HEK/TLR4(+) cells stimulated simultaneously with LPS and 50 nM SDF-1
  TLR4 activation by LPS (NFκB-luciferase): indifferent to the presence of LPS at any concentration tested
[2]; HEK/TLR4(+) cells, no LPS
  NFκB-luciferase reporter activation by the agent itself: slight activation of the luciferase reporter

## pertussis toxin
[2]; HEK/TLR4(+) cells treated with 0.1 μg/mL pertussis toxin
  TLR4 activation by LPS (NFκB-luciferase): diminished TLR4 activation by LPS

## elastase
[3]
  Increase in CD86 expression: not observed
[4]; 0.01 U elastase into spleen
  Expression of CD86 in splenocytes: only modestly increased expression of CD86
[4]; 0.1 U elastase alone
  Expression of CD86 in splenocytes: profoundly increased expression of CD86
[4]; small amount (0.01 U) of elastase along with 1 ng LPS
  Expression of CD86 in splenocytes: profoundly increased expression of CD86
[5]; cells grown on fibronectin
  TLR4 response to elastase: did not respond to elastase
[5]; cells on extracellular matrix, elastase 0.1 U/mL, 1 μg/mL heparan sulfate, 4 hours
  Increase of TLR4 response to heparan sulfate versus no elastase: about 3 fold
[5]; cells on extracellular matrix, elastase 0.3 U/mL, 4 hours
  TLR4 response without added agonist: stimulated full TLR4 responses without addition of agonist

## [Hisx6]SDF-1: recombinant, histidine-tagged murine SDF-1 polypeptide produced in E. coli
[6]
  Amount of CXCR4 on the cell surface: stimulate a decrease in CXCR4 on cell surfaces

## heparan sulfate
[5]; 10 μg/mL heparan sulfate or 10 ng/mL LPS, 6 hours
  Activation of HEK/TLR4(+) cells (NFκB-luciferase): responded both to LPS and heparan sulfate
[5]; cells grown on fibronectin, 1 μg/mL HS, 4 hours
  TLR4 response to heparan sulfate: responded fully to HS
